Structures are written as SMILES.

T1 sequence (Q13547 whole entry): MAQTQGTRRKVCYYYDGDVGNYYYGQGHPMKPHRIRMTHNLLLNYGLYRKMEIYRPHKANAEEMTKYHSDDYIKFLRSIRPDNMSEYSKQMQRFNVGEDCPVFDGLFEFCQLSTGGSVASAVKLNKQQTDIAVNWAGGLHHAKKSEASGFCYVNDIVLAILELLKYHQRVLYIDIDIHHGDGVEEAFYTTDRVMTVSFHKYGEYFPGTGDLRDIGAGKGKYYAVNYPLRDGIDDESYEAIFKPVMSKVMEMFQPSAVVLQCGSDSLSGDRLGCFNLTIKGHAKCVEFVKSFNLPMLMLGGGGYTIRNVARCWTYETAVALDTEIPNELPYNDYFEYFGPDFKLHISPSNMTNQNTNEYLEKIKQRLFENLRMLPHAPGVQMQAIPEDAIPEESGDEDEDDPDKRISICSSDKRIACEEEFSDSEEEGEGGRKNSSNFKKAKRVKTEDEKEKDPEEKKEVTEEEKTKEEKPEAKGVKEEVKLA

The assay addresses T1, human HDAC1 (Homo sapiens, UniProt Q13547).
T1 construct: Full length human HDAC1-FLAG was stably expressed in HEK-293F cells; host or cells: HEK-293F cells
Description: Human HDAC enzyme inhibitor Fluor-de-Lys assay, HDAC1. It counts as biochemical. The note with it: 0.3 nM enzyme, 20 μM substrate BML-KI104, 3 h pre-incubation, 60 min reaction; read-out: HDAC1_IC50. From the text: Recombinant human HDAC8 (catalog number BML-SE145-0100) and HDAC10 (catalog number BML-SE559-0050) enzymes, HDAC substrates BML-KI104 and BML-KI178, and HDAC developer solutions BML-KI105 and BML-KI176 were purchased from Enzo Life Sciences (Farmingdale, NY). Recombinant human HDAC5 and HDAC11 were purchased from BPS Bioscience (San Diego, CA)(catalog numbers 50045 and 50021). Substrate Boc-Lys(TFA)-AMC was obtained from Bachem (Bupendorf, Switzerland) (catalog number 1-1985). HDAC inhibitor suberoylanilide hydroxamic acid (SAHA) was obtained from Indofine (Hillsborough Township, NJ) and trichostatin A (TSA) was obtained from Sigma-Aldrich (St. Louis, MO). […] HEPES pH 8.0 was obtained from Boston BioProducts (Ashland, MA), Tween-20 from Fisher Scientific (Hampton, NH)(catalog number BP337), TCEP from Calbiochem and 7.5% bovine serum albumin (BSA) from Life Technologies (Carlsbad, CA) (catalog number 15260037). 384-well, black assay plates were obtained from Corning (Corning, NY) (catalog number 3575).
Recombinant human HDAC1, HDAC2, and HDAC3/SMRT heterodimer were prepared by Merck Research Laboratories. […] The eluted protein was then passed over an anti-HDAC1 immunoaffinity column to remove any complexes containing HDAC1. […]
The histone deacetylase activities of HDAC1, HDAC2, HDAC3, HDAC6, and HDAC8 were measured in modified Fluor-de-Lys assays in 384-well format. In this assay, HDAC enzymes are initially incubated with an ε-acetyl (or -trifluoroacetyl)-L-lysine-containing substrate with a C-terminal amide having aminomethylcoumarin as the amine component. HDACs cleave the ε-acetyl group, rendering the resulting product susceptible to AMC cleavage by trypsin. The released AMC is then detected by its fluorescence.
The HDAC 1, 2 assays employed buffer A, which contained 20 mM HEPES, pH 8.0, 1 mM MgCl2, 137 mM NaCl, 2.7 mM KCl, 0.05% BSA. The HDAC3/SMRT assay employed buffer B, consisting of 20 mM HEPES, pH 8.0, 1 mM MgCl2, 50 mM NaCl, 2.7 mM KCl, 0.05% BSA, 0.005% Tween 20, and 10 μM IP4. The HDAC6 assay employed buffer C, consisting of 20 mM HEPES, pH 8.0, 1 mM MgCl2, 137 mM NaCl, 2.7 mM KCl, 0.5 mM TCEP (Calbiochem) and 0.05% BSA. The HDAC8 assay employed buffer D, consisting of 20 mM HEPES, pH 8.0, 1 mM MgCl2, 100 mM NaCl, 20 mM KCl, 0.1% n-octyl-β-D-glucoside (Anatrace, Maumee, OH) and 0.05% BSA. All steps were performed at room temperature (23° C.). The assay was performed by pre-incubating serial dilutions of test compounds with the target HDAC prior to initiation with substrate. Each compound was titrated in a 10-point dose response, using a 1:3 fold dilution scheme, with 0.15 ul of solution added by ECHO555 to the plate, followed by the addition of 20 μl of the appropriate HDAC isoform diluted in appropriate assay buffer. […] Final conditions used for each assay were: 1. HDAC 1, 0.3 nM total enzyme, 20 μM substrate BML-K1104; 2. HDAC 2, 1.5 nM total enzyme, 40 μM substrate BML-K1104; 3. HDAC 3/SMRT, 0.3 nM total enzyme, 20 μM substrate BML-K1104; 4. HDAC 6, 1.3 nM total enzyme, 2.5 μM substrate BML-K1104; 5. HDAC 8, 1.3 nM total enzyme, 200 μM substrate BML-K1178; the final high dose of test compound was 30 μM. […] The reactions were stopped and developed by addition of 30 ul of HDAC developer solution containing a saturating level of HDAC inhibitor as follows: 1.
Consider `COc1nc2ccccc2cc1-c1cnc([C@H](COCCCC(=O)c2ccon2)NC(=O)CN(C)C)[nH]1` [Compound 14, N-{(1R)-2-(4-isoxazol-3-yl-4-oxobutoxy)-1-[5-(2-methoxyquinolin-3-yl)-1H-imidazol-2-yl]ethyl}-N~2~,N~2~- dimethylglycinamide], for which the IC50 came out at 1.5 nM. `COc1nc2ccccc2cc1-c1cnc([C@H](COCCCC(=O)c2ncco2)NC(=O)CN(C)C)[nH]1` [Compound 13, N-{(1R)-1-[5-(2-methoxyquinolin-3-yl)-1H-imidazol-2-yl]-2-[4-(1,3-oxazol-2-yl)-4-oxobutoxy]ethyl}-N~2~,N~2~- dimethylglycinamide]: the IC50 is 2.7 nM.

In the case of `COc1nc2ccccc2cc1-c1cnc([C@H](COCCCC(=O)c2ncco2)NC(=O)C23CCN(CC2)CC3)[nH]1` [Compound 12, N-{(1R)-1-[5-(2-methoxyquinolin-3-yl)-1H-imidazol-2-yl]-2-[4-(1,3-oxazol-2-yl)-4-oxobutoxy]ethyl}-1-azabicyclo[2.2.2]octane-4-carboxamide], the IC50 worked out at 4.7 nM.

As to `COc1cc2nc(C)ccc2cc1-c1cnc([C@H](COCCCC(=O)c2cc(C)on2)NC(=O)C2CN(C)C2)[nH]1` [Compound 19, N-{(1R)-1-[5-(7-methoxy-2-methylquinolin-6-yl)-1H-imidazol-2-yl]-2-[4-(5-methylisoxazol-3-yl)-4-oxobutoxy]ethyl}-1-methylazetidine-3-carboxamide], the IC50 was found to be 6.9 nM. Regarding `CN1CC(C(=O)N[C@@H](COCCCC(=O)c2ccon2)c2ncc(-c3ccccc3F)[nH]2)C1` [Compound 15, N-[(1R)-1-[5-(2-fluorophenyl)-1H-imidazol-2-yl]-2-(4-isoxazol-3-yl-4-oxobutoxy)ethyl]-1-methylazetidine-3-carboxamide], the IC50 came out at 4 nM. Regarding `CN1CC(C(=O)N[C@@H](COCCCC(=O)c2ccon2)c2[nH]c(-c3ccc(F)cc3)nc2Cl)C1` [Compound 16, N-[(1R)-1-[4-chloro-2-(4-fluorophenyl)-1H-imidazol-5-yl]-2-(4-isoxazol-3-yl-4-oxobutoxy)ethyl]-1-methylazetidine-3-carboxamide], the IC50 is 11.8 nM. Consider `COc1cc2nc(C)ccc2cc1-c1cnc([C@H](COCCCC(=O)c2cc(C)on2)NC(=O)[C@H]2CC23CCN(C)CC3)[nH]1` [Compound 20, (1S)-N-{(1R)-1-[5-(7-methoxy-2-methylquinolin-6-yl)-1H-imidazol-2-yl]-2-[4-(5-methylisoxazol-3-yl)-4-oxobutoxy]ethyl}-6-methyl-6-azaspiro[2.5]octane-1-carboxamide], for which the IC50 was found to be 3.7 nM. With `CN1CCC2(CC1)C[C@@H]2C(=O)N[C@@H](COCCCC(=O)c1ccon1)c1[nH]c(-c2ccc(F)cc2)nc1Cl` [Compound 18, (1S)-N-[(1R)-1-[4-chloro-2-(4-fluorophenyl)-1H-imidazol-5-yl]-2-(4-isoxazol-3-yl-4-oxobutoxy)ethyl]-6-methyl-6-azaspiro[2.5]octane-1-carboxamide], the IC50 amounted to 1.4 nM. Take `Cc1ccc2cc(-c3cnc([C@H](CSCCCC(=O)c4ncco4)NC(=O)[C@H]4CC45CCN(C)CC5)[nH]3)ccc2n1` [Compound 21, (1S)-6-methyl-N-[(1R)-1-[5-(2-methylquinolin-6-yl)-1H-imidazol-2-yl]-2-{[4-(1,3-oxazol-2-yl)-4-oxobutyl]sulfanyl}ethyl]-6-azaspiro[2.5]octane-1-carboxamide]: the IC50 came to 1.5 nM. In the case of `COc1nc2ccccc2cc1-c1cnc([C@@H](N)COCCCC(=O)c2ncco2)[nH]1` [Compound 1, (R)-4-(2-amino-2-(5-(2-methoxyquinolin-3-yl)-1H-imidazol-2-yl)ethoxy)-1-(oxazol-2-yl)butan-1-one], the IC50 came to 288 nM.

Consider `N[C@@H](COCCCC(=O)c1ccon1)c1ncc(-c2ccccc2F)[nH]1` [Compound 2, (R)-4-(2-amino-2-(5-(2-fluorophenyl)-1H-imidazol-2-yl)ethoxy)-1-(isoxazol-3-yl)butan-1-one], for which the IC50 was found to be 602 nM. Under `CN(C)CC(=O)N[C@@H](COCCCC(=O)c1ccon1)c1[nH]c(-c2ccc(F)cc2)nc1Cl` [Compound 17, N-[(1R)-1-[4-chloro-2-(4-fluorophenyl)-1H-imidazol-5-yl]-2-(4-isoxazol-3-yl-4-oxobutoxy)ethyl]-N~2~,N~2~- dimethylglycinamide] stands 18.6 nM. For `COc1nc2ccccc2cc1-c1cnc([C@H](COCCCC(=O)c2ncco2)NC(=O)c2cncs2)[nH]1` [Compound 10, N-{(1R)-1-[5-(2-methoxyquinolin-3-yl)-1H-imidazol-2-yl]-2-[4-(1,3-oxazol-2-yl)-4-oxobutoxy]ethyl}-1,3-thiazole-5-carboxamide], the IC50 was 6.6 nM.

Consider `CNC(=O)C(=O)CCCOC[C@H](NC(=O)C12CCN(CC1)CC2)c1ncc(-c2cc3ccccc3nc2OC)[nH]1` [Compound 9, N-[(1R)-1-[5-(2-methoxyquinolin-3-yl)-1H-imidazol-2-yl]-2-{[5-(methylamino)-4,5-dioxopentyl]oxy}ethyl]-1-azabicyclo[2.2.2]octane-4-carboxamide], for which the IC50 turned out to be 1.5 nM. With `CNC(=O)C(=O)CCCOC[C@H](NC(=O)c1cncs1)c1ncc(-c2cc3ccccc3nc2OC)[nH]1` [Compound 8, N-[(1R)-1-[5-(2-methoxyquinolin-3-yl)-1H-imidazol-2-yl]-2-{[5-(methylamino)-4,5-dioxopentyl]oxy}ethyl]-1,3-thiazole-5-carboxamide], the IC50 was found to be 1.5 nM. In the case of `COc1nc2ccccc2cc1-c1cnc([C@H](COCCCC(=O)c2ncco2)NC(=O)[C@H]2CC23CCN(C)CC3)[nH]1` [Compound 11, (1S)-N-{(1R)-1-[5-(2-methoxyquinolin-3-yl)-1H-imidazol-2-yl]-2-[4-(1,3-oxazol-2-yl)-4-oxobutoxy]ethyl}-6-methyl-6-azaspiro[2.5]octane-1-carboxamide], the IC50 was 2.1 nM.

For the origin of these results see US12365674B2, “Inhibitors of histone deacetylase useful for the treatment or prevention of HIV infection” (Merck Sharp & Dohme LLC, priority 2019, dated 2025).
